The values that follow come from US12077607B2, “Functional and therapeutic effects of PAR4 cleavage by cathepsin G” (UNIVERSITY OF UTAH RESEARCH FOUNDATION, priority 2021, dated 2024).

Positions count from the first letter of the chain named. Entries after “also recorded” stand apart in the source; their conditions may differ.

Assay type in all cases: cell-based
For assay [1], the target named is T1, PAR4-R68E (Homo sapiens, UniProt Q96RI0, R68E).
T1 construct: Flag; expressed in transfected cells; host or cells: HEK293T/17 (ATCC CRL-11268)
T1 sequence (Q96RI0 18-385 R68E): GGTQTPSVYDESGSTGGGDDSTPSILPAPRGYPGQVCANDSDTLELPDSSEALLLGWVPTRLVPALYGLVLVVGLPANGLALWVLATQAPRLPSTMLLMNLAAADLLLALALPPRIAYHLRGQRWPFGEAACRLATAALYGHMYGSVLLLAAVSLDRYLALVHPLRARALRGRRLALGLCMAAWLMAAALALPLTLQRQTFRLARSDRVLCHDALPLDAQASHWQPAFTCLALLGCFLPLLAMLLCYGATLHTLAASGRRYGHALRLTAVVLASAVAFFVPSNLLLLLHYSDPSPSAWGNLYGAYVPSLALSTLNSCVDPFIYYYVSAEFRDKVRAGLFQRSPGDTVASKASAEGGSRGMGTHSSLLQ
Description: PAR4 mutant calcium flux assay, HEK293T/17 cells, R68E. The following applies: 100 nM vorapaxar. As for the experimental part:
(§1) PAR4 mutant calcium flux assays. Using Quikchange Lightning Site-Directed mutagenesis (Agilent) per manufacturing instructions, pCMV-Flag-PAR4-S66E, pCMV-Flag-PAR4-S67E, and pCMV-Flag-PAR4-R68E were generated from mutation of pCMV-Flag-PAR4 and confirmed by sequencing (University of Utah DNA Sequencing Core). Prior to transfection, HEK293T/17 cells (ATCC CRL-11268) were seeded at 4.5×10^4/mL. The following day, cells were transfected with the plasmid of interest using Lipofectamine 2000 (Invitrogen, Carlsbad, CA, USA). Twenty-four hours after transfection, media was removed and replaced with Optimem w/Glutamax (Gibco, Carlsbad, CA, USA) containing vorapaxar (100 nM) (Cayman Chemical, Ann Arbor, MI, USA) and Fura2-QBT (Molecular Devices). Following incubation for 1 hour at 37° C., plate was placed in the Flexstation 3 (Molecular Devices) where agonists, Tyrode's Buffer, cathepsin G (2.5 μM), or α-thrombin (1.5 U/mL), were injected onto cells and calcium mobilization was monitored and recorded.
A general note: A change in cytosolic calcium serves as a functional read-out for many receptors and channels.

The subject of assay [2] is dog washed platelets. The experiment in a line: Platelet aggregation of dog washed platelets. The note with it: 1 U/mL human thrombin, 1 μM human CatG or 1 mM RA-11mer. The text has this: Animal studies. Mouse platelets were isolated as previously described from C57BL/6 mice (Denorme et al., Blood. 2020; 135(6):429-440). Dog platelets were isolated from whole blood drawn into ACD using a similar isolation procedure as for human platelets. All animal studies were approved by the University of Utah Institutional Animal Care and Use Committee (18-10012).
(§2) Platelet and neutrophil isolation. Platelets and neutrophils were isolated as previously described (Yost et al., J Clin Invest. 2016; 126(10):3783-3798). Platelet isolation from dogs, rats and mice was approved by the IACUC. Platelet activation and aggregation were performed as previously described (Manne et al., Blood. 2020; 136(11): 1317-1329).
(§3) Platelet isolation, aggregation, and activation. Human washed platelets were prepared and resuspended in Tyrode's Buffer at 2×10^8/mL as described (Edelstein et al., Nat Med. 2013; 19(12):1609-1616). For human and dog platelet comparisons, platelets were prepared using a modified human platelet protocol with final concentrations of […] (Cayman Chemical, Ann Arbor, MI, USA) used during centrifugation steps. Centrifugations after Tyrode's washes was decreased to 1,250×g as described in Cremer et al., PLOS One. 2019; 14(11): e0224891. Platelet aggregation was measured under stirring conditions at 37° C. using a PAP-8E aggregometer after treatment with the following agonists: arachidonic acid (Bio/Data Corporation, Horsham, PA, USA), cathepsin G, elastase, proteinase 3 (Athens Research Group), α-thrombin (Sigma, St. Louis, MO, USA), PAR-1 peptide (SFLLRN) (GL Biochem, China). P-selectin and PAC-1 were measured as previously described (Yee et al., J Thromb Haemost. 2006; 4(9):2043-2050; Tourdot et al., Arterioscler Thromb Vasc Biol. 2014; 34(12):2644-2650).

In assay [3] the test system is rat washed platelets. Description: Platelet aggregation of rat washed platelets. The note with it: 1 U/mL human thrombin, 1 μM human CatG or 1 mM RA-11mer. As for the experimental part: as §2, §3
The target of assay [4] is T2, PAR4-S66E (Homo sapiens, UniProt Q96RI0, S66E).
T2 construct: Flag; expressed in transfected cells; host or cells: HEK293T/17 (ATCC CRL-11268)
T2 sequence (Q96RI0 18-385 S66E): T1 sequence (Q96RI0 18-385 R68E) with S49E, E51R
The experiment in a line: PAR4 mutant calcium flux assay, HEK293T/17 cells, S66E. The note with it: 100 nM vorapaxar. As for the experimental part: as §1

In assay [5] the target is T3, PAR4-S67E (Homo sapiens, UniProt Q96RI0, S67E).
T3 construct: Flag; expressed in transfected cells; host or cells: HEK293T/17 (ATCC CRL-11268)
T3 sequence (Q96RI0 18-385 S67E): T1 sequence (Q96RI0 18-385 R68E) with S50E, E51R
Description: PAR4 mutant calcium flux assay, HEK293T/17 cells, S67E. The following applies: 100 nM vorapaxar. As for the experimental part: as §1

On to “CatG: serine protease cathepsin G released by activated neutrophils”, for which the “CatG-induced calcium flux, R68E mutant compared with WT” value in assay [1] (CatG 2.5 μM, P<0.001) is recorded as “significantly less calcium flux than WT”. In addition, the “platelet aggregation, species comparison: dogs” value in assay [2] was “induced platelet aggregation; also recorded: not as responsive”. Moreover, the “platelet aggregation, species comparison: rats” value in assay [3] was “only induced platelet aggregation in humans and dogs”. In addition, in assay [4] (CatG 2.5 μM), the “CatG-induced calcium flux, S66E mutant compared with WT” value is reported as “slight decrease”. In addition, in assay [5] (CatG 2.5 μM, P<0.001), the “CatG-induced calcium flux, S67E mutant compared with WT” value is given as “significantly less calcium flux than WT”.

As for thrombin, the “thrombin-induced calcium flux, R68E mutant compared with WT” value in assay [1] (thrombin 1.5 U/mL) is given as “None of the PAR4 mutants were significantly different than WT”. Moreover, the “platelet aggregation, species comparison: dogs” value in assay [2] is given as “induced platelet aggregation”. The “platelet aggregation, species comparison: rats” value in assay [3] is listed as “induced platelet aggregation”. In addition, the “thrombin-induced calcium flux, S66E mutant compared with WT” value in assay [4] (thrombin 1.5 U/mL) is given as “None of the PAR4 mutants were significantly different than WT”. Besides, the “thrombin-induced calcium flux, S67E mutant compared with WT” value in assay [5] (thrombin 1.5 U/mL) is “None of the PAR4 mutants were significantly different than WT”.
